Values joined by “and” are separate entries in the source; they are usually repeats but may differ in a detail not shown here. Identical values can stand only once.
Experiment: Pesticide sorption from water by K- and Ca-SWy-2 smectite clay, batch equilibration method
Type: physicochemical
Conditions: for change in sorption by sorbents derived from Ca-SWy-2 as fK increased from zero to 0.71: Ca-SWy-2 exchanged with KCl; for sorption by K-SWy-2 relative to sorption by Ca-SWy-2: relative aqueous concentration of 0.1; for pesticide distribution coefficient for sorption by homoionic K-SWy-2: relative concentration of 0.1 (aqueous equilibrium concentration/aqueous solubility), 0.25 M KCl solution
Experimental: Pesticide sorption from water solution by K— and Ca—SWy-2 mixed with different ratios of aqueous KCl to CaCl2 (kept at a fixed ionic strength of 0.25 M) were measured using a batch equilibration method. A series of initial pesticide concentrations were prepared in the following electrolyte solutions: 0.25 M KCl, 0.24 M KCl/0.003 M CaCl2; 0.20 M KCl/0.016 M CaCl2; 0.15 M KCl/0.033 M CaCl2; 0.10 M KCl/0.05 M CaCl2; 0.05 M KCl/0.067 M CaCl2; 0.01 M KCl/0.08 M CaCl2; and 0.083 M CaCl2. Clays were weighed into glass centrifuge tubes, solute solutions over a range of initial pesticide concentrations were added, and the tubes were closed with Teflon-lined screw caps. The tubes were then shaken reciprocally at 40 rpm for 24 h at room temperature (23±2° C.), followed by centrifugation at 2600 g for 30 min. Previous studies have shown that equilibrium was reached within this period of time (Sheng, G., et al., J. Agri. Food Chem. 49, 2899-2907 (2001); and Sheng, G., et al., Clays Clay Miner. 50, 25-34 (2002)). Supernatants were sampled and subject to analysis for pesticide concentrations using a Perkin-Elmer High Performance Liquid Chromatography (HPLC) system consisting of a Binary 250 LC pump, a Series 200 autosampler and a Series 200 UV-Visible detector. The optimal wavelength was set at 238 nm for dichlobenil, 250 nm for monuron and 248 nm for biphenyl. An Alltech platinum extended polar selectivity C18 column (15 cm by 4.6 mm i.d.) was used for dichlobenil and monuron, and an Alltech adsobosphere C18 column (25 cm by 4.6 mm i.d.) was used for biphenyl. The mobile phase composition was a mixture of methanol and water, and was optimized for each pesticide. Controls consisted of identical pesticide solutions in the corresponding electrolytes, but with no clay present. No changes in solute concentrations were detected in the tubes devoid of clay within the experimental period; therefore, solute mass lost in the supernatant from clay slurries was assumed to be sorbed by clay. The amount of pesticide sorbed was calculated from the difference between the initial and equilibrium solute concentration in aqueous solution.
The actual population of exchangeable K^+ and Ca^2+ associated with the clay was measured in a separate experiment using the BaCl2 extraction method (Rhoades, J. D., Method of Soil Analysis part 2: Chemical and Microbiological Properties; 2nd ed., American Society of Agronomy: Madison, Wis. 149-158 (1982)). The same amounts of clays and electrolyte solutions used in the sorption studies were added into glass centrifuge tubes, the tubes were shaken for 24 h at room temperature then centrifuged at 2600 g for 30 min. Aqueous supernatants were removed, diluted and analyzed by a Perkin-Elmer 3110 atomic absorption spectrophotometer (AAS). The mass of K^+ and Ca^2+ remaining in the residual supernatant was accounted for by assuming their concentrations to be the same as that measured in the bulk supernatant; residual supernatant that could not be removed was determined gravimetrically. The clay pellets were extracted three times using 0.1 M BaCl2, then washed three times with Milli-Q water. The supernatants from the water washing were combined with the supernatants from the BaCl2 extraction step, diluted and analyzed by AAS. The K^+ and Ca^2+ concentrations were measured using the external standards prepared with the matching matrix background of extraction reagents.
We compared sorption coefficients for clays derived from homoionic Ca—SWy-2 vs. those derived from homoionic K—SWy-2 after the homoionic clays had been treated with different amounts of CaCl2/KCl aqueous solutions. […] Replacement of K^+ from K—SWy-2 by Ca^2+ (from fK=1 to 0.66) manifested gradually diminishing sorption of dichlobenil to ˜40% of that by homoionic K—SWy-2.

[1] = relative aqueous concentration 0.1

Compound | sorption enhancement by Ca-SWy-2 derived sorbents at fK as high as 0.71 (Ca2+ replaced by K+, sorption isotherms, FIG. 2) | change in sorption by sorbents derived from Ca-SWy-2 as fK increased from zero to 0.71 [1] | change in sorption when K-SWy-2 underwent exchange with CaCl2, fK from 1 to 0.81 [1] | sorption by K-SWy-2 relative to sorption by Ca-SWy-2 | pesticide distribution coefficient for sorption by homoionic K-SWy-2 [L/kg] | sorption across variation of K+ fractions on minerals from zero to one (relative concentration 0.1, FIG. 4) | sorption relative to that by homoionic K-SWy-2 after replacement of K+ by Ca2+ (K-SWy-2 derived clay, fK from 1 to 0.66, relative concentration 0.1) [%] | sorption by clay derived from K-SWy-2 (fK=0.66) relative to clay derived from Ca-SWy-2 (fK=0.71) (comparable fK, different starting clay)
CN(C)C(=O)Nc1ccc(Cl)cc1 [Monuron, N′-(4-chlorophenyl)-N,N-dimethylurea] | ca. 205 | No apparent enhancement | reduced by about half | ~4 times higher | 27 |  |  | 
c1ccc(-c2ccccc2)cc1 [Biphenyl, 1,1′-biphenyl] |  |  |  |  | 6.4 | remained nearly constant |  | 
N#Cc1c(Cl)cccc1Cl [Dichlobenil, 2,6-dichlorobenzonitrile] |  | increased by approximately four times |  | approximately 75 times higher | 580 |  | ~40 | ~10 times and 8 times
